The results in this text go back to patent US20240058387A1, “CULTURE MEDIUM COMPOSITION FOR AMPLIFYING AND MAINTAINING SELF-RENEWAL CAPACITY AND DIFFERENTIATION POTENTIAL OF HSCS AND APPLICATION THEREOF” (EDIGENE (GUANGZHOU) INC., priority 2020, published 2024).

In the assay the test system is mobilized peripheral blood-derived CD34+ cells. The assay is described as follows: Cell counting: absolute number of marker-positive cells, comparison with UM171 and SR1. Type of assay: cell-based, human. Conditions: FIG. 5B; 8 days; AG1296 at 1 μM; UM171 concentration not given. How it is done:
According to the solubility and required solvent indicated in the instructions of the small molecule inhibitor (see Table 1 for the Cat. number of the small molecule inhibitor), the preparation of the small molecule inhibitor stock solution was carried out. Next, the hematopoietic stem cell medium was prepared: SFEM II medium (stem cell, Cat. number: 09655)+50 ng/ml growth factor Flt-3L (PeProtech, Cat. number: 300-100UG)+50 ng/ml growth factor SCF (PeProtech, Cat. number): 300-07-100UG)+50 ng/ml growth factor TPO (PeProtech, Cat. number: 300-18-100UG)+10 ng/ml interleukin IL-6 (PeProtech, Cat. number: 200-06-20UG)+1% bispecific antibody (HyClone, Cat. No.: sv30010). According to the set concentration gradient of the small molecule inhibitor, the stock solution and the basal medium were used to prepare the medium containing different concentrations of the small molecule inhibitor.
First, the prepared medium was added to a 24-well plate (Corning, Cat. number: 3473), 950 μl per well, and placing it in a carbon dioxide incubator (Thermo, model: 3111) to preheat; resuspending the spare umbilical cord Blood-derived HSCs of Example 1 with SFEM 11+50 ng/ml Flt-3L+50 ng/ml SCF+50 ng/ml TPO+10 ng/ml IL-6+1% bispecific antibody, calculating the medium volume to be added according to 50 μl cell suspension per well and 2*10^5/m1 cell density per well. For example, when the final volume of the cell culture solution per well was 1 ml, the total number of cells per well was 2*10^5 cells calculated according to the cell density per well, and the density of the […] of cell suspension supplemented to each well is 4*10^6/ml. The density of the spare HSCs of Example 1 was adjusted to the calculated density of the cell suspension, and adding it; taking out the preheated medium from the incubator, adding 50 μl of the cell suspension to each well, and after mixing, using the microscope (OLYMPUS, model: CKX53) to observe the cells state, and then putting it into an incubator for culturing.
On the mobilized peripheral blood-derived CD34+ cells sorted in Example 1, the screened-out inhibitor AG1296 and literature-reported (Fares I, et al. Science. 2014; Boitano A E, et al. Science. 2010) inhibitors UM171 and SR1 were compared in the same way as Example 2. Eight days after the induction of the small molecule inhibitor, the expression of LT-HSCs cell surface markers (CD34+CD45+CD90+CD45RA−CD38−) was detected by flow cytometry using the same method as in Example 3. After 8 days of culture, 20 μL of cell suspension was taken into a cell counter (Nexcelom, model: Cellometer K2) and counted, and the absolute numbers of the final CD34+ cells and LT-HSCs on […] were calculated (absolute number of cells=total number of cells*stemness ratio).

`Cn1nnc(-c2ccc3c(c2)[nH]c2nc(Cc4ccccc4)nc(NC4CCC(N)CC4)c23)n1` (stereo not shown) [UM171]: the “absolute number of CD34+ cells” value is recorded as “best effect”.
